Residues, ends and D or L forms follow the SMILES beside them. *: point of attachment. Cbz = O=C(OCc1ccccc1)*
Assays:
[1] = system: macrophage MT-1 induced from iPS cells (mutant NLRP3 gene); details: for amount of secretion of IL-1β: 100 ng/ml IL-1Ra, 12 μM Bay11-7028, 50 μM CA074Me or 10 μM Parthenolide, two hours, then drug and LPS (1 μg/ml) four hours, FIG. 5A; for amount of IL-1β secretion: each concentration of drug, cultured two hours, then drug and LPS (1 μg/ml) another four hours, FIG. 4
[2] = system: macrophage MT-1 induced from iPS cells (mutant NLRP3 gene); test: amount of IL-6 secretion from LPS-stimulated macrophage MT-1 (Human Th1/Th2 11plex Kit); details: 100 ng/ml IL-1Ra, 12 μM Bay11-7028 or 10 μM Parthenolide; two hours, then drug and LPS (1 μg/ml) four hours; FIG. 5C
[3] = system: macrophage MT-1 induced from iPS cells (mutant NLRP3 gene); test: amount of IL-8 secretion from LPS-stimulated macrophage MT-1 (Human Th1/Th2 11plex Kit); details: 100 ng/ml IL-1Ra, 12 μM Bay11-7028 or 10 μM Parthenolide; two hours, then drug and LPS (1 μg/ml) four hours; FIG. 5B

Row | Compound | amount of secretion of IL-1β [1] | amount of IL-1β secretion [1] | amount of secretion of IL-6 [2] | amount of secretion of IL-8 [3]
1 | CCCNC(=O)[C@H]1O[C@@H]1C(=O)N[C@H](C(=O)N1CCC[C@H]1C(=O)OC)[C@@H](C)CC [CA074Me] | specifically inhibited |  |  | 
2 | C[C@@H]1C[C@@H]([C@H](O)CC2CC(=O)NC(=O)C2)C(=O)[C@@H](C)C1 [CHX, cycloheximide] |  | inhibited IL-1β secretion in a dose dependent manner |  | 
3 | IL-1Ra: interleukin 1 receptor antagonist (R&D Systems) | did not change |  | did not change | did not change
4 | CC(C)C[C@@H](C=O)NC(=O)[C@H](CC(C)C)NC(=O)[C@H](CC(C)C)NC(=O)OCc1ccccc1 [MG132] (Cbz-Leu-Leu-Leu-aldehyde) |  | inhibited IL-1β secretion in a dose dependent manner |  | 
5 | Cc1ccc(S(=O)(=O)/C=C/C#N)cc1 [Bay11-7028] | inhibited |  | inhibited | inhibited

Source: patent US9557321B2, “Method for screening drugs for suppressing inflammasome activity” (KYOTO UNIVERSITY, priority 2010, dated 2017)
